In ChEMBL document CHEMBL1150548, “Dopamine autoreceptor agonists: computational studies, synthesis and biological investigations” (Bioorg Med Chem Lett, 1993):
pIC50: −log10 of the molar value.

What was measured:
D(1A) dopamine receptor = D(1A) dopamine receptor (Rattus norvegicus, UniProt P18901); assay: Compound was evaluated for binding affinity to Dopamine receptor D1 labeled with [3H]-SCH- 23390 (0.3 nM) in rat striatal membranes; format: cell membranes, Striatum, Membrane
D(2) dopamine receptor [1] = molecular target: T1, D(2) dopamine receptor (Rattus norvegicus, UniProt P61169); assay: Compound was evaluated for binding affinity to Dopamine receptor D2 labeled with [3H]spiroperidol (0.5 nM) in rat striatal membranes; format: cell membranes, Striatum, Membrane
T1 sequence (P61169 whole entry): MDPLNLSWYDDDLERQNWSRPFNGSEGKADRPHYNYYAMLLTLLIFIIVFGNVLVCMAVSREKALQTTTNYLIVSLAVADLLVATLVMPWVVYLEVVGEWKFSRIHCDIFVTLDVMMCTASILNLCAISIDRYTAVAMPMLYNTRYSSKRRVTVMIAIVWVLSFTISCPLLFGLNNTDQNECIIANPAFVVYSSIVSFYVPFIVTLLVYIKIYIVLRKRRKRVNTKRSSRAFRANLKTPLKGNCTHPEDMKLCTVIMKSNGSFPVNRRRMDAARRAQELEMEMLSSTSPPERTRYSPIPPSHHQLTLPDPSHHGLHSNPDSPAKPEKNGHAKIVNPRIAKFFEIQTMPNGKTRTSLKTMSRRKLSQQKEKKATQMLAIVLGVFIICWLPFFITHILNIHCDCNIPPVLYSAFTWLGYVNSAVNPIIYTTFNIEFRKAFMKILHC

Mus musculus [2] = assay: Compound was evaluated for agonistic activity (DA receptor) by inhibition of GBL (gamma-butyralactone)-induced L-Dopa accumulation at a dose 10 mg/kg; format: functional
D(2) dopamine receptor [3] = molecular target: T1, D(2) dopamine receptor; assay: Compound was evaluated for binding affinity to Dopamine receptor D2 labeled with [3H]-SND 919 (0.5 nM) in rat striatal membranes; format: cell membranes, Striatum, Membrane
Mus musculus [4] = assay: Compound was evaluated for agonistic activity (DA receptor) by inhibition of GBL (gamma-butyralactone)-induced L-Dopa accumulation at a dose of 10 mg/Kg; format: functional

Chain of D(1A) dopamine receptor (P18901 whole entry): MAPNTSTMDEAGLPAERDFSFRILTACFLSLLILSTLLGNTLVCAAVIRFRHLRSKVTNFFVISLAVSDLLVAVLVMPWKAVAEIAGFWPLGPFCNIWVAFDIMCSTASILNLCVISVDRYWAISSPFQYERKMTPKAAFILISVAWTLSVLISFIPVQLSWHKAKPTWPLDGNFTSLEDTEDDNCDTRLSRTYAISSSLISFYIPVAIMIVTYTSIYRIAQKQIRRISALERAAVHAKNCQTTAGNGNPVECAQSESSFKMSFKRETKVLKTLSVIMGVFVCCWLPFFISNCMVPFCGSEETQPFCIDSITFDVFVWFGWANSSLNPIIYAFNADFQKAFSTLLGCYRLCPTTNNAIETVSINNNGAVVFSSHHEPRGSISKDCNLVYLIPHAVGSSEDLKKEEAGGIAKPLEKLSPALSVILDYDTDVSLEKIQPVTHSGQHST

Row | pIC50 (D(1A) dopamine receptor) | pIC50 (D(2) dopamine receptor [1]) | pIC50 (D(2) dopamine receptor [3]) | SMILES | inhibition in vivo at 10 mg/kg (Mus musculus [2]) [%] | inhibition in vivo at 10 mg/kg (Mus musculus [4]) [%]
1 | 4.84 | 5.15 | 7.52 | CCCN(CCC)[C@H]1CCn2cccc2C1 | 62 | 
2 | < 4.00 | < 4.00 | 5.57 | CCCNC1Cc2cccn3ncc(c23)C1 (centres undefined) |  | 
3 | < 4.00 | 4.30 | 6.59 | CCCN(CCC)C1Cc2cccn3ncc(c23)C1 (centres undefined) |  | 57
4 | < 4.00 | < 4.00 | 5.55 | NC1Cc2cccn3ncc(c23)C1 (centres undefined) |  | 
